“Also recorded” adds a separate entry of the source.
Experiments:
Assay type in all cases: cell-based
[1] = tested on: human osteogenic cells (MG63, HBPC, primary osteoblasts); experiment: Inhibition of cell condensation (bone cell spheroid and microspicule formation); conditions: EGTA 0.5 mM; puromycin 5 μM; spheroid-forming conditions with TGF-β1
Method: Inhibition of Cell Condensation. Cells were cultured in serum-free media under conditions that establish bone cell spheroids (as described above) in the presence of neutralizing antibodies to α2, α3, and/or β1 integrins, at 10 μg/ml. Isotype-specific inappropriate antibodies served as negative controls. Antibodies were added every second day over a seven-day culture period. EGTA (0.5 mM) was also used inhibition of cell aggregation, as was puromycin (5 μM).

[2] = tested on: human osteogenic cells (MG63, HBPC, primary osteoblasts); experiment: TGF-β1-induced bone cell spheroid formation in serum-free culture; conditions: 200 pM TGF-β1, serum-free, immediately following trypsinization
Method: Culture of Osteogenic Cells and Cell Lines. Osteogenic cell lines such as human osteosarcoma cells (MG63) were cultured in RPMI 1640 (Gibco, Grand Island. N.Y.) containing 2 mM L-Glutamine, sodium pyruvate and 10% Fetal Calf Serun (FCS) (Hyclone Labs Inc., Logan, Utah). For bone cell spheroid formation, cells were grown to confluency, trypsinized, washed two times in RPMI, and immediately cultured in serum-free media containing 1% ITS+ (Collaborative Research Inc.) and 200 pM TGF-β1 (Collaborative). Unless otherwise noted, cells are plated at a density of about 10^3 to 10^6 cells/cm^2 in tissue culture dishes. Control cells were allowed to adhere to plastic for 3–4 hours in serum containing medium following trypsinization. This adherent cell layer was then washed twice with serum-free medium and cultured as above with or without TGF-β1.
Bone Cell-Spheroid Formation. In order to induce three-dimensional cell development (i.e., bone cell spheroids), cells were trypsinized as routinely performed for passage, the trypsin inactivated by serum addition, the cells washed three times, and immediately cultures in RPMI/ITS^+ (see above) containing 200 pM TGF-β1, Control cells were allowed to adhere to plastic for 3–4 hours in serum containing medium following trypsinization. This adherent cell layer was then washed twice with serum-free medium and cultured as above with or without TGF-β1.

[3] = tested on: human osteogenic cells (MG63, HBPC, primary osteoblasts); experiment: Western analysis of bone protein expression in spheroids; conditions: each osteogenic cell type; versus serum-free cells in the absence of TGF-β1
Method: Western Analysis. The procedure used was essentially that of Towbin (1979). Samples were run on a 10% SDS-PAGE. The electrophoretically resolved proteins were transferred to nitrocellulose (Schleicher & Schuell; Keene, N.H.) and the nonspecific binding sites blocked using 5% Skim milk in TBST (10 mM Tris, 0.15M NaCl, 0.05% Tween 20, pH 7.5). The nitrocellulose membrane was incubated with primary antibodies: anti-Osteonectin (ON), anti-alkaline phosphatase, (both generous gifts of Dr. Kenneth Mann, University of Vermont) or anti-Type I collagen (Collaborative); each at 10 μg/ml in TBST) for 1 hour at room temperature, washed with TBST and treated with the secondary antibody (anti-mouse IgG-HRP conjugated; Amersham) at a 1:1000 dilution in the same buffer. The HRP/anitbody-labeled proteins were visualized by enhanced chemilluminescence (Pierce).

[4] = tested on: primary osteoblasts isolated from human bone; experiment: Collagen synthesis by 3H-proline incorporation, delayed reduction electrophoresis; conditions: densitometry
Method: Collagen Synthesis. At the times indicated, bone cell-spheroids were washed with prolene-free DMEM containing 1% ITS, and incubated for 12 hours in the presence of ITS^+ and 100 μCi/ml (^3H) Proline (Amersham). Cells and medium were harvested, and cell lysates were made. Protein content was estimated by the BCA method (Smith, 1985), using a kit from Pierce (Rockford, Ill.). The cell lysates were lyophilized and extracted overnight at 4° C. with 0.5M acetic acid containing 100 μg/ml pepsin (Sigma Chemical Co., St. Louis, Mo.). Samples were dried, dissolved in non-reducing SDS-gel buffer and analyzed on a 5% SDS-gel. The αl(1) and αl(111) components were resolved by delayed reduction electrophoresis (Sykes, 1976). The gels were treated with Amplify (Amersham, England), and the radiolabeled collagen visualized by autoradiography. The percentage of Type I collagen was determined using the following formula (Franceschi, 1988).

[5] = tested on: murine LTBMC (unfractionated bone marrow); experiment: Murine long-term bone marrow culture (LTBMC) osteogenesis, von Kossa / Masson positive foci and microspicules
Text: The inventors therefore established murine LTBMC and probed their capacity to express markers of osteogenesis. […] Additionally, they have developed a smaller culture volume system (dropping from 100 -mm tissue culture dishes to 35 mm ones) to allow better utilization of human osteoblasts. Using this modification on murine cells (which respond less robustly to TGF-β as a solitary cytokine), the inventors examined the role of IGF in modulating this process.
Endothelial cells are important sources of cytokines for both hematopoietic and osteogenesis cells. An important regulator of endothelial cells, VEGF, is known to affect both endothelial cells, and bone cell development (although it is not clear if the latter is a direct effect).

Question: With O=C(O)CN(CCOCCOCCN(CC(=O)O)CC(=O)O)CC(=O)O [EGTA] as the molecule, how does the “spheroid formation (effect in words)” value [1] read?
Answer: completely inhibited

Question: Which “spheroid formation (effect in words)” value [1] does the source give for COc1ccc(C[C@H](N)C(=O)N[C@H]2[C@@H](O)[C@H](n3cnc4c(N(C)C)ncnc43)O[C@@H]2CO)cc1 [puromycin] here?
Answer: completely blocked; also recorded: completely inhibited

Question: “TGF-β1: multifunctional cytokine of the TGF-β family, osteogenic growth factor used at 200 pM (human) or 25 pM (murine)” was tested. Which “time to formation of three-dimensional spherical cellular condensates (cell spheroids)” value [2] did it give?
Answer: 24 to 48 h

Question: And the “expression of osteonectin and alkaline phosphatase” value [3]?
Answer: markedly increases

Question: And the “increase in collagen synthesis on TGF-β1-dependent spheroid formation” value [4]?
Answer: two to three fold increase

Question: What about the “capacity to drive murine osteogenesis (individually)” value ([5]; TGF-b 25 pM, IGF 15 pM, each alone) of the same molecule?
Answer: little capacity

Question: How did the “increase in number of von Kossa cellular foci” value ([5]; VEGF 10 ng/mL) turn out when VEGF was run?
Answer: 2.5 fold

Question: What about the “increase in number of collagen-positive and von Kossa-positive developmental foci per culture” value ([5]; VEGF 10 ng/mL added to LTBMC) of the same molecule?
Answer: 75–80%

Question: What about the “increase in number of microspicules per culture” value ([5]; VEGF 10 ng/mL, over the first three weeks of culture) of the same molecule?
Answer: ~5 fold
